The source of these data is patent USRE35517E, “Method, compositions, and compounds for modulating brain excitability” (priority 1992, dated 1997).

Like-named read-outs stand apart in the source and are kept apart here.

In one data set the test system is maximal electroshock. On the set-up: unit not given here. The conditions noted are these: mice, cited from earlier work.
In a further data set the test system is metrazol. On the set-up: key: NP: no protection. The conditions noted are these: mice, cited from earlier work.
Data set [1] concerns (+)bicuculline-induced seizures. On the set-up: key: NP: no protection. The conditions noted are these: mice, cited from earlier work.
In a further data set the test system is picrotoxin. On the set-up: key: NP: no protection. The conditions noted are these: mice, cited from earlier work.
A further data set deals with strychnine. Details: key to ED50 STR (strychnine): NP: no protection. The conditions noted are these: mice, cited from earlier work.
Data set [2] relates to GABA/benzodiazepine receptor-chloride ionopore complex (GBR complex). Briefly: Modulation of [35S]TBPS binding in rat cerebral cortex P2 homogenate. On the set-up: species or system rat (male Sprague-Dawley). The conditions noted are these: for CONTROL IC50: inhibition of basal 2 nM [35S]TBPS binding; for CONTROL IC50 / +5 μM IC50: 25° C., 90 minutes; for +5 μM IC50: inhibition of 2 nM [35S]TBPS binding, +5 μM (GABA). As for the experimental part: These procedures were performed as follows:

Data set [3] has as its system rotorod performance. Details: unit not given beside the values. The conditions noted are these: mice; data from Swinyard & Woodhead 1982; cited from earlier work.
The subject of data set [4] is GABA/benzodiazepine receptor-chloride ionopore complex (GBR complex). Briefly: Dissociation kinetics of [35S]TBPS in rat cerebral cortical membranes. The conditions noted are these: for biphasic dissociation mechanism of [35S]TBPS: FIGS. 2A, 2B, pentobarbital 30 micromolar, alphaxalone 300 nanomolar, 5-alpha-pregnan-3-alpha-hydroxy-20-one 20 nanomolar; for t1/2, R (rapidly dissociating component) / t1/2, S (slowly dissociating component): 30 nM Na pentobarbital; for Total percentage of specific sites, R: rapidly dissociating component, Na pentobarbital (**P < 0.01 vs control); for Total percentage of specific sites, S: slowly dissociating component, Na pentobarbital (*P < 0.05 vs control). It counts as binding. As for the experimental part: An assay was performed to determine the effect of pentobarbital on the dissociation kinetics of [^35 S]TBPS in rat cerebral cortical membranes. This assay was performed in accordance with the procedures outlined above. […] Dissociation of bound [^35 ]TBPS was initiated by 2 micromolar TBPS in all cases.

The test system of the next data set is BZ receptor. Briefly: Modulation of [3H]flunitrazepam binding in rat hippocampal homogenates, with pentobarbital (FIG. 3). The conditions noted are these: 1.0 millimolar pentobarbital, 0.25 nM [3H]FLU, absence of GABA.
A further data set relates to convulsions. Briefly: Anticonvulsant screen (chemical convulsants and maximal electroshock), overall. The format is in vivo, mice. The conditions noted are these: in comparison to clinically useful anticonvulsants, benzodiazepines. The method, then:
Experiments were also performed to determine the physiological relevance of these interactions by measuring the ability of the compounds of and used in the invention to modulate TBPS-induced convulsions in Swiss-Webster mice. […] The time to onset of myoclonus (presence of forelimb clonic activity) induced by TBPS was determined by observing each mouse of a period of 45 minutes. Significant differences between the time to onset in control mice vs. steroid-treated mice were determined by Student's t-test. […] The number of animals with tonic and/or clonic convulsions was recorded. In the maximal electroshock test, 50 mA of current at 60 Hz was delivered through corneal electrodes for 200 msec. […] The ED50 (the dose at which the half-maximal effect occurs) dose was determined for each screen.
On the technique in general: The maximal electroshock test induces tonic seizures with an electrical stimulus.

A short description of the next data set: Acute lethality (LD50). The conditions noted are these: mice; from therapeutic index.
The subject of data set [5] is rotorod performance. Briefly: Rotorod test (sedative potential). Details: ED50 RR (rotorod): unit not given beside the values. The conditions noted are these: mice. In general terms: Falling from the rotarod earlier than controls is read as motor impairment.
Data set [6] concerns premenstrual syndrome, PND, catamenial epilepsy. The conditions noted are these: patients, cited from earlier work.
Setting [7] is: data from Swinyard & Woodhead 1982.
The mark [8] stands for this setting: data from Swinyard & Woodhead 1982, NP = no protection.
[9] abbreviates: convulsant administered i.v., data from Worms et al. 1982.
The mark [10] stands for this setting: [35S]TBPS dissociation, rat cortex, 300 nM alphaxalone, 20 nM a-OH-DHP.
The mark [11] stands for this setting: [35S]TBPS dissociation, rat cortex, Na pentobarbital, 300 nM alphaxalone, 20 nM a-OH-DHP.
The mark [12] stands for this setting: 300 nM alphaxalone, 20 nM a-OH-DHP.

As to `CCCC(CCC)C(=O)O` [Valproate], in the data set with maximal electroshock (setting [7]), the “ED50 MES (maximal electroshock)” value is recorded as 272. In the data set on metrazol (setting [8]), the “ED50 MTZ (metrazol)” value is reported as 149. The “ED50 BIC (bicuculline)” value in [1] (setting [8]) was 360. Also, in the data set on picrotoxin (setting [8]), the “ED50 PICRO (picrotoxin)” value is given as 387. Moreover, in the data set with strychnine (setting [8]), the “ED50 STR (strychnine)” value was 293.
Turning to `CC(=O)[C@H]1CC[C@H]2[C@@H]3CC[C@H]4C[C@@H](O)CC[C@]4(C)[C@H]3CC[C@]12C` [ALLOPREGNANLONE, 5α-PREGNAN-3β-OL- 20-ONE], the “CONTROL IC50” value in data set [2] was “INACTIVE”.
The same measure, in the same setting: the same measure for `CC(=O)[C@H]1CC[C@H]2[C@@H]3CC=C4C[C@@H](O)CC[C@]4(C)[C@H]3CC[C@]12C` [PREGNENOLONE, 5α-PREGNEN-3β-OL- 20-ONE]: “INACTIVE”; for `C[C@]12C[C@H](O)[C@H]3[C@@H](CCC4=CC(=O)CC[C@@]43C)[C@@H]1CC[C@@H]2C(=O)CO` [CORTICOSTERONE, 4-PREGNEN-11β,21- DIOL-3,20-DIONE]: “INACTIVE”.
As to `NC(=O)CCC/N=C(\c1ccc(Cl)cc1)c1cc(F)ccc1O` [Progabide], the “ED50 MES (maximal electroshock)” value in the data set with maximal electroshock (data from Worms et al. 1982) is 75. For the same compound, in the data set with metrazol (setting [9]), the “ED50 MTZ (metrazol)” value is on record as 30. In addition, the “ED50 BIC (bicuculline)” value in data set [1] (setting [9]) is 30. Besides, the “ED50 PICRO (picrotoxin)” value in the data set on picrotoxin (setting [9]) is given as 105. The “ED50 STR (strychnine)” value with strychnine (setting [9]) is on record as 75.
`O=C1NC(=O)C(c2ccccc2)(c2ccccc2)N1` [Phenytoin]: the “ED50 MTZ (metrazol)” value in the data set on metrazol (setting [8]) is “NP”. In addition, the “ED50 BIC (bicuculline)” value in data set [1] (setting [8]) is “NP”. Besides, the “ED50 PICRO (picrotoxin)” value in the data set on picrotoxin (setting [8]) is on record as “NP”. Also, the “Maximum protection (strychnine)” value with strychnine (at 55-100 mg/kg, data from Swinyard & Woodhead 1982) was 50%.
With `CCC1(c2ccccc2)C(=O)NC(=O)NC1=O` [Phenobarbital], the “ED50 MES (maximal electroshock)” value with maximal electroshock (setting [7]) is reported as 22. Besides, the “ED50 MTZ (metrazol)” value in the data set on metrazol (setting [8]) is 13. The “ED50 BIC (bicuculline)” value in data set [1] (setting [8]) is reported as 38. Moreover, the “ED50 PICRO (picrotoxin)” value in the data set with picrotoxin (setting [8]) is 28. Besides, the “ED50 STR (strychnine)” value in the data set on strychnine (setting [8]) is 95. The “ED50 RR (rotorod)” value in the data set on rotorod performance [3] is 69.
Take `CC(C)CCC[C@@H](C)[C@H]1CC[C@H]2[C@@H]3CC=C4C[C@@H](O)CC[C@]4(C)[C@H]3CC[C@]12C` [CHOLESTEROL]: in data set [2], the “+5 μM IC50” value was “INACTIVE” and the “CONTROL IC50” value is on record as “INACTIVE”.
In the case of `O=C1CN=C(c2ccccc2Cl)c2cc([N+](=O)[O-])ccc2N1` [Clonazepam], in the data set with maximal electroshock (setting [7]), the “ED50 MES (maximal electroshock)” value is reported as 93. The “ED50 MTZ (metrazol)” value with metrazol (setting [8]) is given as 0.009. The “ED50 BIC (bicuculline)” value in data set [1] (setting [8]) was 0.0086. For the same compound, the “ED50 PICRO (picrotoxin)” value in the data set with picrotoxin (setting [8]) is 0.043. Also, the “ED50 STR (strychnine)” value in the data set with strychnine (setting [8]) was “NP”. In addition, the “ED50 RR (rotorod)” value with rotorod performance [3] is recorded as 0.184.
On to `CCCC(C)C1(CC)C(=O)NC(=O)NC1=O` (stereo not shown) [Pentobarbital], for which the “biphasic dissociation mechanism of [35S]TBPS” value in data set [4] is given as “induces a biphasic dissociation mechanism”. Also, in [4] (setting [10]), the “t1/2, R (rapidly dissociating component)” value was found to be 4.4 ± 0.3 and the “t1/2, S (slowly dissociating component)” value turned out to be 38 ± 3. Moreover, in [4] (setting [11]), the “k-1, R (rapidly dissociating component)” value turned out to be 0.158 ± 0.013 min⁻¹ and the “k-1, S (slowly dissociating component)” value worked out at 0.0186 ± 0.0015 min⁻¹. Further, in data set [4] (setting [12]), the “Total percentage of specific sites, R” value stood at 48 ± 6% and the “Total percentage of specific sites, S” value came out at 61 ± 6%.
`CC(=O)[C@H]1CC[C@H]2[C@@H]3CC[C@H]4C[C@H](O)CC[C@]4(C)[C@H]3CC[C@]12C` [3α-OH-DHP, 3α-hydroxy-5α-pregnan-20-one]: the “biphasic dissociation mechanism of [35S]TBPS” value in data set [4] is on record as “absent”. In [4] (setting [10]), the “t1/2, R (rapidly dissociating component)” value is on record as 6.4 ± 1 and the “t1/2, S (slowly dissociating component)” value is 76 ± 11. In addition, in data set [4] (setting [11]), the “k-1, S (slowly dissociating component)” value is 0.011 ± 0.002 min⁻¹. Besides, in data set [4] (setting [12]), the “Total percentage of specific sites, R” value is given as 35 ± 3% and the “Total percentage of specific sites, S” value amounted to 68 ± 3%. In addition, in data set [4] (rat cerebral cortex), the “influence on the dissociation kinetics of [35S]TBPS binding” value was “do not influence the dissociation kinetics”. The “interaction with pentobarbital in the enhancement of [3H]flunitrazepam binding” value with BZ receptor is recorded as “does not interact with pentobarbital”. The “anticonvulsant activity / profile” value in the data set with convulsions is listed as “highly effective with a profile similar to that of the benzodiazepine clonazepam”. Also, the “toxicity, in words” value in “Acute lethality (LD50)” was “very low toxicity”. Further, the “ED50 RR (rotorod)” value in the data set on rotorod performance [5] (10 minutes after injection) is reported as 40-100. The “sedative liability at anticonvulsant doses” value with rotorod performance [5] (rotorod ED50 compared with (+)bicuculline ED50) is reported as “low”.
Take `C[C@]12CC[C@@H]3c4ccc(O)cc4CC[C@H]3[C@@H]1CC[C@@H]2O` [17β-ESTRADIOL]: in data set [2], the “+5 μM IC50” value was “INACTIVE” and the “CONTROL IC50” value is recorded as “INACTIVE”.
Take `CC(=O)[C@H]1CC[C@H]2[C@@H]3CCC4=CC(=O)CC[C@]4(C)[C@H]3CC[C@]12C` [PROGESTERONE]: the “potency (and efficacy) at the GBR complex” value in data set [2] (in vitro, [35S]TBPS binding) is given as “very low potency”. Further, in data set [6] (literature), the “effectiveness in the treatment of PMS, PND and catamenial epilepsy” value is reported as “not consistently effective”. Further, the “dose-response relationship in the treatment of PMS” value in data set [6] (Maddocks et al., Dennerstein et al. 1986) is reported as “no dose-response relationship exists”.
